From ChEMBL document CHEMBL1140305, “Three-dimensional quantitative structure-activity relationship analyses of beta-lactam antibiotics and tripeptides as substrates of the mammalian H+/peptide cotransporter PEPT1” (J Med Chem, 2005)
Non-standard residues stand in square brackets, D forms with d. Residues, ends and D or L forms follow the SMILES beside them. *: point of attachment. Bip = N[C@@H](Cc1ccc(-c2ccccc2)cc1)C(=O)O; NMeT = CN[C@H](C(=O)O)[C@@H](C)O; OBn = c1ccc(CO*)cc1; Bn = c1ccc(C*)cc1

target: T1, Solute carrier family 15 member 1 (Homo sapiens, UniProt P46059); assay: Binding affinity against membrane transport protein PEPT1 in human Caco-2 cells; type: cell-based; conditions: not given
T1 sequence (P46059 whole entry): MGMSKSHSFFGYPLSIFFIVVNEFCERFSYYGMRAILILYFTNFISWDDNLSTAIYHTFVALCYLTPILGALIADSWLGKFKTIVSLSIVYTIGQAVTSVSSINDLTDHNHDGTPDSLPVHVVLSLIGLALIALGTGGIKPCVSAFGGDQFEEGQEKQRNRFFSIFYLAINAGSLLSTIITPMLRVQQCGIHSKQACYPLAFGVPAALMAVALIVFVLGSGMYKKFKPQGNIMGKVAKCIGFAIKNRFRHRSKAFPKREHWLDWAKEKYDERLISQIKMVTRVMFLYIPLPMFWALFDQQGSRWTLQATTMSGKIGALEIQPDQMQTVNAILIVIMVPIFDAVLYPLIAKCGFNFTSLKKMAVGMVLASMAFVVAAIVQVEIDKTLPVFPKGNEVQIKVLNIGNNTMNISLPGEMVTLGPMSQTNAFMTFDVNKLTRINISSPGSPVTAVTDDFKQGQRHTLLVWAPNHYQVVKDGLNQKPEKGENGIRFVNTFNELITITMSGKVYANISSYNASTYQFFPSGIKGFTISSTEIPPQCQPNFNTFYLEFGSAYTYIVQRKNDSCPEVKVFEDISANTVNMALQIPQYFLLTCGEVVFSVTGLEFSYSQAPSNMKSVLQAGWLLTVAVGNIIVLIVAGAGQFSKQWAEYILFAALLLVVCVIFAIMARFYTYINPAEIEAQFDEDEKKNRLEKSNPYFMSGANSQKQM

Ki [µM]	Structure (SMILES)
15000	[N-]=[N+]=N[C@H](C(=O)NC1C(=O)N2C(C(=O)O)=CCSC12)c1ccccc1 (stereo partly specified)
180	C[C@H](N)C(=O)N[C@@H](C)C(=O)N[C@@H](C)C(=O)O
8300	C[C@H](N)C(=O)N[C@@H](C)C(=O)N[C@H](C)C(=O)O
> 30000	C[C@@H](N)C(=O)N[C@H](CCCCN)C(=O)O
1500	C[C@H](N)C(=O)NC(=O)C1CCCCC1
90	C[C@H](NC(=O)[C@@H](N)Cc1ccc(OCc2ccccc2)cc1)C(=O)O
210	C[C@H](N)C(=O)N[C@@H](CCCCN)C(=O)O
> 30000	C[C@H](N)C(=O)N[C@H](CCCCN)C(=O)O
20	C[C@H](NC(=O)[C@H](Cc1ccccc1)NCc1ccccc1)C(=O)O
19000	C[C@H](N)C(=O)N[C@H](Cc1ccccc1)C(=O)N[C@@H](C)C(=O)O
17000	C[C@H](N)C(=O)N[C@H](C)C(=O)N[C@@H](C)C(=O)O
7900	C[C@H](NC(=O)[C@H](C)NOC(=O)[C@@H](C)N)C(=O)O
7000	C[C@@H](N)C(=O)N[C@@H](CCCCN)C(=O)O
240	N[C@@H](Cc1c[nH]c2ccccc12)C(=O)NCC(=O)N[C@@H](Cc1ccc(O)cc1)C(=O)O
5000	C[C@@H](N)C(=O)N1CCC[C@H]1C(=O)O
100	CC(C)C[C@H](NC(=O)[C@H](Cc1ccccc1)NC(=O)[C@H](C)N)C(=O)O (H-Ala-Phe-Leu-OH)
150	CC(C)C[C@H](NC(=O)[C@@H]1CCCN1C(=O)[C@H](C)N)C(=O)O (H-Ala-Pro-Leu-OH)
90	C[C@H](NC(=O)[C@@H](N)CC(=O)OCc1ccccc1)C(=O)O (H-Asp(OBn)-Ala-OH)
860	NCCCC[C@H](NC(=O)[C@@H](N)CC(=O)O)C(=O)O (H-Asp-Lys-OH)
510	NCCCC[C@H](NC(=O)[C@@H](N)CCC(=O)O)C(=O)O (H-Glu-Lys-OH)

Ki [µM]	Structure (SMILES)
200	N[C@@H](CCC(=O)O)C(=O)N[C@@H](Cc1ccccc1)C(=O)N[C@@H](Cc1ccc(O)cc1)C(=O)O (H-Glu-Phe-Tyr-OH)
4100	NCC(=O)N[C@@H](Cc1c[nH]cn1)C(=O)O (H-Gly-His-OH)
120	CC[C@H](C)[C@H](N)C(=O)N[C@@H](Cc1ccc(O)cc1)C(=O)O (H-Ile-Tyr-OH)
200	CC[C@H](C)[C@H](N)C(=O)N[C@H](C(=O)N[C@@H](Cc1ccc(O)cc1)C(=O)O)C(C)C (H-Ile-Val-Tyr-OH)
110	CC(C)C[C@H](N)C(=O)N[C@@H](C)C(=O)N[C@@H](CCCNC(=N)N)C(=O)O (H-Leu-Ala-Arg-OH)
300	CC(C)C[C@H](N)C(=O)N[C@@H](CCCN=C(N)N)C(=O)N1CCC[C@H]1C(=O)O (H-Leu-Arg-Pro-OH)
390	CC(C)C[C@H](N)C(=O)NCC(=O)NCC(=O)O (H-Leu-Gly-Gly-OH)
100	CC(C)C[C@H](N)C(=O)N1CCC[C@H]1C(=O)N[C@@H](CCCN=C(N)N)C(=O)O (H-Leu-Pro-Arg-OH)
180	CC(C)C[C@H](N)C(=O)N1CCC[C@H]1C(=O)O (H-Leu-Pro-OH)
110	CC(C)C[C@H](NC(=O)[C@H]([C@@H](C)O)N(C)C(=O)[C@@H](N)CC(C)C)C(=O)O (H-Leu-[NMeT]-Leu-OH)
6400	C[C@H](NC(=O)[C@@H](N)CCCCN)C(N)=O (H-Lys-Ala-NH2)
340	C[C@H](NC(=O)[C@@H](N)CCCCN)C(=O)O (H-Lys-Ala-OH)
1300	NCCCC[C@H](N)C(=O)N[C@@H](CCC(=O)O)C(=O)O (H-Lys-Glu-OH)
140	CC(C)C[C@H](NC(=O)[C@H](CC(C)C)NC(=O)[C@@H](N)Cc1ccccc1)C(=O)O (H-Phe-Leu-Leu-OH)
2500	N=C(N)NCCC[C@H](NC(=O)[C@@H]1CCCN1)C(=O)O (H-Pro-Arg-OH)
16000	O=C(O)CNC(=O)CNC(=O)[C@@H]1CCCN1 (H-Pro-Gly-Gly-OH)
2000	NCCCC[C@H](NC(=O)[C@H](Cc1ccccc1)NC(=O)[C@@H]1CCCN1)C(=O)O (H-Pro-Phe-Lys-OH)
1200	O=C(O)[C@@H]1CCCN1C(=O)[C@@H]1CCCN1 (H-Pro-Pro-OH)
90	C[C@H](NC(=O)[C@@H](N)COCc1ccccc1)C(=O)O (H-Ser(Bn)-Ala-OH)
1100	C[C@@H](O)[C@H](N)C(=O)N[C@@H](CCCCN)C(=O)N[C@@H](Cc1ccc(O)cc1)C(=O)O (H-Thr-Lys-Tyr-OH)

Ki [µM]	Structure (SMILES)
160	C[C@H](NC(=O)[C@@H](N)Cc1c[nH]c2ccccc12)C(=O)O (H-Trp-Ala-OH)
170	N[C@@H](Cc1c[nH]c2ccccc12)C(=O)N[C@@H](Cc1c[nH]c2ccccc12)C(=O)N[C@@H](Cc1c[nH]c2ccccc12)C(=O)O (H-Trp-Trp-Trp-OH)
140	N[C@@H](Cc1ccc(O)cc1)C(=O)N[C@@H](Cc1ccccc1)C(=O)O (H-Tyr-Phe-OH)
140	CC(C)C[C@H](NC(=O)[C@H](C)NC(=O)[C@@H](N)C(C)C)C(=O)O (H-Val-Ala-Leu-OH)
10	C[C@H](NC(=O)[C@@H](N)Cc1ccc(-c2ccccc2)cc1)C(=O)O (H-[Bip]-Ala-OH)
25000	CC(C)C[C@@H](N)C(=O)NCC(=O)NCC(=O)O (H-[dL]-Gly-Gly-OH)
15000	C[C@H](N)C(=O)N1CCCC1C(=O)O (single isomer, unassigned)
100	CSCC[C@H](NC(=O)[C@H](CCSC)NC(=O)[C@@H](N)CCSC)C(=O)O (stereo in doubt; 10)
2100	C[C@H](N)C(=O)N[C@@H](C)C(=O)O (stereo in doubt; 47)
9800	O=C(O)C[C@H](NC(=O)[C@@H]1CCCN1)C(=O)O (stereo in doubt; 64)
140	C[C@H](N)C(=O)N[C@@H](C)C(=O)O (stereo in doubt; 110)
520	CSCC[C@H](NC(=O)[C@H](CCSC)NC(=O)[C@@H](N)CCSC)C(=O)O (stereo in doubt; 119)
> 30000	Cc1nnc(SCC2=C(C(=O)O)N3C(=O)[C@@H](NC(=O)Cn4cnnn4)[C@H]3SC2)s1 [CEFAZOLIN]
10000	CO[C@@]1(NC(=O)Cc2cccs2)C(=O)N2C(C(=O)O)=C(COC(N)=O)CS[C@@H]21 [CEFOXITIN]
> 30000	COCC1=C(C(=O)O)N2C(=O)[C@@H](NC(=O)/C(=N\OC)c3csc(N)n3)[C@H]2SC1 [CEFPODOXIME]
9800	CC1=C(C(=O)O)N2C(=O)[C@@H](NC(=O)[C@H](N)C3=CCC=CC3)[C@H]2SC1 [CEPHRADINE]
2500	Cc1onc(-c2ccccc2Cl)c1C(=O)N[C@@H]1C(=O)N2[C@@H]1SC(C)(C)[C@@H]2C(=O)O [CLOXACILLIN]
3200	Cc1onc(-c2c(F)cccc2Cl)c1C(=O)N[C@@H]1C(=O)N2[C@@H]1SC(C)(C)[C@@H]2C(=O)O [FLOXACILLIN]
21000	CC1(C)S[C@@H]2[C@H](NC(=O)COc3ccccc3)C(=O)N2[C@H]1C(=O)O [PENICILLIN V]
> 30000	CCN1CCN(C(=O)N[C@@H](C(=O)N[C@@H]2C(=O)N3[C@@H]2SC(C)(C)[C@@H]3C(=O)O)c2ccccc2)C(=O)C1=O [PIPERACILLIN]

Structure (SMILES)	Ki [µM]
N[C@@H](Cc1ccc(O)cc1)C(=O)NCC(=O)NCC(=O)O (H-Tyr-Gly-Gly-OH)	350
CC[C@H](C)[C@H](NC(=O)[C@@H]1CCCN1C(=O)[C@@H](N)Cc1ccc(O)cc1)C(=O)O (H-Tyr-Pro-Ile-OH)	250
C[C@@H](NC(=O)[C@@H](N)Cc1ccc(O)cc1)C(=O)NCC(=O)O (H-Tyr-[dA]-Gly-OH)	14000
CC(C)[C@H](NC(=O)[C@H](N)Cc1ccc(O)cc1)C(=O)NCC(=O)O (H-[dY]-Val-Gly-OH)	14000

same assay, conditions: caco-2

Ki [µM]	Structure (SMILES)
4300	CC(C)[C@H](N)C(=O)N1CCC[C@H]1C(=O)N1CCC[C@@H]1C(=O)O
9800	O=C(O)C[C@H](NC(=O)[C@@H]1CCCN1)C(=O)O (stereo in doubt; 121)
